The assay has as its system SK-MEL-5 TRPM1-promoter luciferase reporter, 24 h. Put plainly: reducers of TRPM1 reporter luminescence, concentration series – cell-based, SK-MEL-5, cherry-picked, set 4, MITF inhibitor project, dose response (AID 493102).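 Also: actives lower the luciferase signal so the potency reflects inhibition of reporter expression.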

As usually defined, the AC50 is the midpoint of the concentration-response curve, whichever way the signal moves. As to `CN(C)CCNc1ccc2nnn3c4ccc(O)cc4c(=O)c1c23`, the AC50 was 4.73 µM.
Regarding `Cc1ccc(C2CC(C(F)(F)F)n3nc(C(=O)NCc4c(C)nn(C)c4C)c(Cl)c3N2)cc1` (stereo not drawn), the AC50 is 8.89 µM.
For `Cn1cc([N+](=O)[O-])c(C(=O)Nc2nc(-c3ccc(Cl)cc3)cs2)n1`, the AC50 is 10.5 µM.
For the compound `CC(C)N1C/C(=C/c2cccnc2)C(=O)/C(=C/c2cccnc2)C1`, the AC50 was 14.2 µM.
Under `CC(C)(C)NC(=O)CCN(/N=C/c1ccc([N+](=O)[O-])o1)C1=NS(=O)(=O)c2ccccc21` stands 7.18 µM.
On to `COC(=O)CCS(=O)(=O)c1nc(-c2ccccc2)cc(C(F)(F)F)n1`, for which the AC50 is 5.85 µM.
With `O=C(CSCC(=O)Nc1ccccc1)N/N=C/c1c(O)ccc2ccccc12`, the AC50 is 3.33 µM.
In the case of `O=C(NC1=NCCS1)C1COc2ccccc2O1` (stereo not drawn), the AC50 was 1.7 µM.
The same measure for `COc1ccc(/C=C2\SC(=O)N(CCCC(=O)Nc3cc(Cl)ccc3C(=O)O)C2=O)cc1`: 0.528 µM.
`Cc1cc(/C=C2\Sc3ccccc3N2C)cc(C)[n+]1CC1CCCO1` (stereo not drawn): the AC50 is 1.82 µM.
With `COCCN(C(=O)CCl)C(C(=O)NC1CCCCC1)c1ccccc1C` (stereo not drawn), the AC50 was 17.8 µM.
As for `COc1cc(NC(=O)COc2ccccc2[N+](=O)[O-])ccc1NC(=O)c1cccs1`, the AC50 is 10.1 µM.
The same measure for `Cc1nc(Sc2nnnn2C)c2c3c(sc2n1)CCC3`: 4.98 µM; for `CC(OC(=O)c1ccc([N+](=O)[O-])s1)C(=O)NC1CCCCC1C` (stereo not drawn): 12 µM.
The same measure for `O=C(/C=C/c1ccccc1)Nc1cccc(C(=O)O)c1`: 1.52 µM.
Take `Cc1ccc(NC(=O)c2ncn(CCCN[C@H](C)c3cccc4ccccc34)n2)cc1C`: the AC50 was 22.7 µM.
Under `O=C(CNC(=O)c1cccc(F)c1)N/N=C/c1ccc([N+](=O)[O-])s1` stands 7.45 µM; under `Cc1ccc(NC2=C(Cl)C(=O)c3ccccc3C2=O)cc1`, 5.25 µM.
In the case of `Cc1nc2ccccc2n1/N=C/c1ccc([N+](=O)[O-])s1`, the AC50 was 3.51 µM.
For the compound `CCN(CC)CCNC(=O)c1c(C)n(-c2ccccc2)c2cc(Br)c(OC)cc12`, the AC50 was 12.9 µM.
As to `COc1cccc(/C=N/Nc2ncnc3c2ncn3Cc2ccccc2)c1O`, the AC50 is 4.6 µM.
The same measure for `Cc1ccc(Oc2c(C(N)=O)cc([N+](=O)[O-])cc2[N+](=O)[O-])cc1`: 3.68 µM; for `Cc1cc(Sc2ncnc(N)c2[N+](=O)[O-])ncn1`: 7.61 µM.
On to `COc1ccc(C(NC(C)=O)c2ccc3cccnc3c2O)c(OC)c1` (stereo not drawn), for which the AC50 is 5.15 µM.
Take `CCN(CCO)c1ccc(N=Nc2cc(C)[nH]n2)cc1`: the AC50 was 3.6 µM.
Turning to `O=C(Nc1ccc2oc(-c3cccnc3)nc2c1)c1ccc([N+](=O)[O-])o1`, the AC50 is 14.2 µM.
Under `O=[N+]([O-])/C=C\c1ccc(N2CCOCC2)cc1` stands 13.6 µM; under `Cc1ccc(NC(=O)Cn2ncc(Cl)c(Cl)c2=O)cc1S(=O)(=O)N1CCCCC1`, 13.7 µM.
With `CC(=O)OCCCNc1cc(Sc2ccc(Cl)cc2)c2nonc2c1[N+](=O)[O-]`, the AC50 is 10.9 µM.
For `CC(C)c1ccc(N2C(=O)NC(=O)/C(=C/C=C/c3ccco3)C2=O)cc1`, the AC50 is 5.89 µM.
`COc1cccc(-c2nnc3n2N=C(C(C)(C)C)CS3)c1`: the AC50 was 4.82 µM.
Regarding `Cc1ccc(NC(=O)CCl)cc1S(=O)(=O)N1CCCCCC1`, the AC50 is 7.55 µM.
As to `Cc1ccc(-n2nnnc2CNC(=O)c2ccc([N+](=O)[O-])o2)cc1C`, the AC50 is 9.72 µM.
The same measure for `O=C(COC(=O)c1ccc[nH]c1=O)Nc1ccc(N2CCCCC2)cc1`: 1.03 µM; for `COc1cc2c(cc1O)C(SC)=NC(C)(C)C2`: 11.3 µM.
Under `O=C(CCl)Nc1ccc(-c2ccccc2)cc1` stands 7.3 µM; under `Cc1ccc(N2C(=O)NC(=O)/C(=C/C=C/c3ccco3)C2=O)cc1`, 5.97 µM; under `CN(C)c1ccc(/C=C2\SC(=O)N(CCc3nnc(N)s3)C2=O)cc1`, 2.54 µM.
In the case of `CCSc1ccccc1C(=O)n1nnc2ccccc21`, the AC50 is 11.8 µM.
Under `Cc1cccc(N2C(=O)NC(=O)/C(=C\C=C\c3ccco3)C2=O)c1` stands 5.75 µM.
The same measure for `O=[N+]([O-])c1ccc(/C=N/n2cnc3ccccc32)s1`: 6.25 µM; for `O=C1NC(=O)N(c2ccccc2)C(=O)/C1=C/C=C/c1ccco1`: 8.29 µM; for `CCN1CCN(c2ccc(S(=O)(=O)N3CCCCC3)cc2NC(=O)/C=C/c2ccc([N+](=O)[O-])cc2)CC1`: 7.51 µM.
With `O=[N+]([O-])c1ccc(-n2nnnc2-c2ccccc2)c([N+](=O)[O-])c1`, the AC50 was 7.37 µM.
The same measure for `O=C(COc1ccccc1)N/N=C/c1ccc([N+](=O)[O-])o1`: 21.5 µM; for `CCN(CC)c1ccc(/C=N/NC(=O)c2cccc(S(=O)(=O)N3CCOCC3)c2)c(O)c1`: 1.52 µM.
`O=C1NC(=O)N(Cc2ccc(F)cc2)C(=O)/C1=C\C=C\c1ccco1`: the AC50 is 6.63 µM.
The same measure for `COc1cccc2sc(N(CCCN(C)C)C(=O)C(c3ccccc3)c3ccccc3)nc12`: 15.1 µM; for `CCOC(=O)/C=c1/s/c(=C/c2ccc3cc(OC)ccc3c2)c(=O)n1CC(=O)NCC1CCCO1` (stereo not drawn): 6.79 µM.
As to `COc1cc(OC)cc(C(=O)N[C@H](C(=O)Nc2nc3ccccc3[nH]2)C(C)C)c1`, the AC50 is 2.44 µM.
With `CC1CCCCC1NC(=O)/C(C#N)=C/C=C/c1ccccc1[N+](=O)[O-]` (stereo not drawn), the AC50 is 7.92 µM.
The same measure for `CCc1ccc(-c2cc(C(=O)Nn3cnnc3)c3ccccc3n2)cc1`: 12.5 µM; for `Cc1ccc(C(O)(c2ccc(C)c(C)c2)C2CN3CCC2CC3)cc1C` (stereo not drawn): 10.1 µM.
Under `CCc1cc[n+](C2=C([O-])c3ccccc3C(=O)/C2=N\S(=O)(=O)c2cccs2)cc1` stands 1.15 µM; under `COc1ccccc1C(=O)Nc1nc(-c2ccc(S(=O)(=O)N3CCOCC3)cc2)cs1`, 4.34 µM; under `CC(C)C(CCNC1CCN(C)CC1)c1ccc(Cl)cc1` (stereo not drawn), 11.9 µM.
`CC(C)(C)c1ccc(OCCCNCc2ccccc2)cc1`: the AC50 was 18.4 µM.
Under `COc1ccccc1NC(=O)c1nc(S(=O)(=O)Cc2ccccc2)ncc1Cl` stands 8.91 µM; under `Cc1ccc(-c2cc3onc(-c4ccccc4)c3c(=O)n2C)cc1`, 9.77 µM; under `O=[N+]([O-])c1ccc(/C=N/n2c(CO)nc3ccccc32)s1`, 1.98 µM.
Take `CCCCCCN1C=CC(=C2C(=O)c3ccccc3C2=O)C=C1`: the AC50 was 3.86 µM.
Consider `O=C(CCl)N1N=C(c2ccco2)CC1c1cccs1` (stereo not drawn), for which the AC50 is 7.84 µM.
Under `C1CCC(C(CC2CCCCN2)C2CCCCC2)CC1` (stereo not drawn) stands 18.8 µM; under `CCCNC(=O)COC(=O)c1ccccc1C(=O)c1ccc(Cl)c([N+](=O)[O-])c1`, 8.34 µM.
Turning to `Cc1cc2ncn(/N=C/c3ccc([N+](=O)[O-])o3)c2cc1C`, the AC50 was 21.9 µM.
Under `O=C(CCl)N(c1ccccc1)C1CCCCC1` stands 4.51 µM.
The same measure for `O=S(=O)(CC(CN1CCCCC1)N1CCCCC1)c1ccc2ccccc2c1` (stereo not drawn): 12.5 µM.
Take `COc1ccc(Oc2cc(NC(=O)c3nn(C)cc3[N+](=O)[O-])cc([N+](=O)[O-])c2)cc1`: the AC50 is 8.94 µM.
The same measure for `C=CCn1c(C)cc(C(=O)CN2C(=O)c3ccccc3S2(=O)=O)c1C`: 0.666 µM; for `CCC(=O)NC(c1ccccc1OC)c1ccc2cccnc2c1O` (stereo not drawn): 6.7 µM.
The same measure for `CC(C)(C)C(=O)Cn1ncc(Br)c(Br)c1=O`: 3.92 µM.
Under `CC(C)(C)c1ccc(Cn2c(=N)n(CC(O)c3ccco3)c3ccccc32)cc1` (stereo not drawn) stands 11.8 µM; under `COc1ccc2nc(C)cc(NCc3cccc(C(F)(F)F)c3)c2c1`, 18.2 µM.
Regarding `COc1cc(/C=N/NS(=O)(=O)c2ccc3ccccc3c2)ccc1OCc1ccc(C(=O)O)cc1`, the half-maximal activity concentration (AC50) was 4.78 µM.
Under `CCOC(=O)c1c(C)oc2c(F)c(F)c(F)c(F)c2c1=O` stands 2.32 µM; under `O=C1c2cc([N+](=O)[O-])cc3cc([N+](=O)[O-])cc(c23)C(=O)N1c1ccccn1`, 7.92 µM; under `O=C(N/N=C\c1ccc([N+](=O)[O-])o1)C1COc2ccccc2O1` (stereo not drawn), 7.21 µM.
Regarding `O=C(Nc1ccc(OC(=O)N2CCCCC2)cc1)N1CCOCC1`, the AC50 was 27.4 µM.
Under `Cc1cc(-n2c(C)cc(C(=O)CCl)c2C)no1` stands 5.5 µM.
`CCCc1ccc(-c2ccc(/C=C/C(=O)O)cc2)nc1`: the AC50 was 0.039 µM.
On to `CC(C)N1C(=O)/C(=C/C=C/c2ccco2)C(=O)N(Cc2ccco2)C1=O`, for which the AC50 was 9.97 µM.
As for `COc1ccc(S(=O)(=O)N2CCCCC2)cc1NC(=O)c1ccc([N+](=O)[O-])o1`, the AC50 is 9.14 µM.
Consider `Cc1cccc(/C=C2/Sc3ccc(C(=O)NCCN4CCCC4)cc3NC2=O)c1`, for which the AC50 was 18.4 µM.
`CCN1CCN(CCCNC(=O)c2ccc3c(c2)NC(=O)/C(=C\c2cccc(C)c2)S3)CC1`: the AC50 was 9.93 µM.
As for `CC(=O)NC1=C(N(C)C2CCS(=O)(=O)C2)C(=O)c2ccccc2C1=O` (stereo not drawn), the AC50 was 21.2 µM.
The same measure for `Cn1cccc1C(=O)NC(=O)COC(=O)c1ccc(S(C)(=O)=O)c([N+](=O)[O-])c1`: 9.23 µM.
Consider `C=CCn1c(C)cc(C2=NNC(=NCC)SC2)c1C`, for which the AC50 is 0.056 µM.
Turning to `O=C(Nc1ccc(N2CCOCC2)cc1)c1cnsn1`, the AC50 is 3.05 µM.
As to `NCCCNc1nc(N)c([N+](=O)[O-])c(NC2CCCCC2)n1`, the AC50 was 6.36 µM.
The same measure for `Cc1cc(C=C2C(=O)c3ccccc3C2=O)c(C)n1-c1ccccc1`: 3.78 µM.
Turning to `COc1ccc(C)cc1Nc1nc(N)c2cc(OC)c(OC)cc2n1`, the AC50 is 14.2 µM.
As for `CCN1CCc2c(sc(NC(=O)c3ccc(S(=O)(=O)N4CCCC4)cc3)c2C(=O)NC)C1`, the AC50 was 9.14 µM.
Under `Oc1cc(NCCN2CCOCC2)cc2cccnc12` stands 25.9 µM; under `CS(=O)(=O)c1ccc(C(=O)OCC(=O)NCc2cccs2)cc1[N+](=O)[O-]`, 11.7 µM.
Under `CCCCn1c(=N)n(CC(=O)c2ccc(Br)s2)c2ccccc21` stands 7.45 µM.
`Nc1ncnc(Sc2ncccn2)c1[N+](=O)[O-]`: the AC50 was 11.7 µM.
Turning to `CCN(Cc1ccc(OC)c(F)c1)C(=O)CCl`, the AC50 was 3.36 µM.
For `N=c1n(Cc2ccc(Cl)cc2)c2ccccc2n1CC(O)COc1ccccc1` (stereo not drawn), the concentration at half-maximal activity (AC50) was 9.25 µM.
